These results are taken from US20240325544A1, “CATIONIC LIPID FOR COVALENT MODIFICATION OF PEPTIDES” (PharmalN Corporation, priority 2023, published 2024).

Bridge positions count the residues as written; N and C are the ends. Square brackets hold non-standard residues; d marks the D form. Peptide text beside a SMILES is read from it. * marks the point of attachment. Palmitoyl = CCCCCCCCCCCCCCCC(=O)*; Dap = NC[C@H](N)C(=O)O; AEEA = NCCOCCOCC(=O)O

One test addresses T1, human NPRC (Homo sapiens, UniProt P17342).
T1 construct: NPRC Q1-S434, (GenBank Accn. #NP_001191304.1); made in house; host or cells: Expi293 cells
T1 sequence (P17342 43-476 limits assumed): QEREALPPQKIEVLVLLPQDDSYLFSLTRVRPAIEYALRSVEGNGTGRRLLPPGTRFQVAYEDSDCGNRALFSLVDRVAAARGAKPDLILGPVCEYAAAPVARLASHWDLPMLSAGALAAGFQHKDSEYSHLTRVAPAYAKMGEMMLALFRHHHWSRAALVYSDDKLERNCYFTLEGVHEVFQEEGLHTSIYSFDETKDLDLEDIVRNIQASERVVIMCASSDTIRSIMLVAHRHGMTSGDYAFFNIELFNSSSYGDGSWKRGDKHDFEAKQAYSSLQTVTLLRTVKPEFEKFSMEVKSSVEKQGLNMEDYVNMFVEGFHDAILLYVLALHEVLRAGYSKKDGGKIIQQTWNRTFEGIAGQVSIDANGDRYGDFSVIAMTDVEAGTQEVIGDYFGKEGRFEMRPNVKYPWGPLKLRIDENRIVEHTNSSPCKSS
The test can be described thus: Fluorescence polarization (FP) assay with CNP-F* probe, NPRC. It counts as binding. The note with it: 150 nM test article, 5 nM CNP-F*, 50 nM human NPRC. As for the experimental part: Error bars represent standard error of the mean. […] NO.
In the presence of [SEQ ID.
The CNP-F* probe was incubated at a final concentration of 5 nM in the presence of 50 nM human NPRB or NPRC in an assay buffer containing PBS, pH 7.4 and 0.01% Triton X-100. A […] volume of CNP-F* probe and NPR were dispensed into a black 96-well Costar flat-bottom polystyrene plate prior to FP measurement. Next, […] volume of SEQ ID. No. 31 (final concentration 150 nM) was added to the premixed probe and NPR. The plate was incubated at room temperature for 10 min. Fluorescence polarization was then measured on Flexstation 3 (excitation wavelength: 480 nm; emission wavelength: 525 nm and cutoff at 515 nm).
CNP-F* was prepared using solid phase peptide synthesis. […] Next, the crude linear peptide was cleavage with 95% TFA in the presence of carbocation scavengers and ether precipitation.
A general note: Fluorescence polarisation rises when a labelled molecule tumbles more slowly, as on binding a larger partner.

The subject of the next test is MC38 colon cancer cells. Briefly: Subcutaneous mouse model of colon cancer using MC38 cells (FIG. 12). It counts as in vivo, mice. The settings on record: monotherapy, 0.3 mg/kg SC, 5 days on, 2 days off, 3 cycles; Day 22. Here is the method:
FIGS. 12A-12B. […] Error bars represent standard error of the mean. FIG. 12A) A diagram of the dose schedule for administration of immune checkpoint inhibitor (anti-tigit Ab) and SEQ ID NO: 31. FIG. 12 B) Tumor growth kinetics of 6-week-old male C57BL/6J mice (n=8-9 per group) that were subcutaneously inoculated with MC38 colon cancer cells (1,000,000 cells/mouse) in right flank. Starting from Day 4 post-inoculation, anti-tigit Ab was administered intraperitoneally at 5 mg/kg twice a week for 2 cycles; SEQ ID NO: 31 was administered subcutaneously at a bolus dose of 0.3 mg/kg (0.1 μmol/kg) once daily for 5 days (5 days on, 2 days off) for 3 cycles; or a combination of anti-tigit Ab (5 mg/kg IP twice a week; 2 cycles) and SEQ ID NO: 31 (0.3 mg/kg SC once a day for 5 days on and 2 days off; 3 cycles). The control group, which received only buffer, was dosed in the same manner as SEQ ID NO: 31 to establish the baseline tumor growth kinetics. […]
Animal care and treatment: Male C57BL/6J mice (6 weeks-old) were purchased from Kyudo (Saga, Japan) and maintained under a 12-hour light/12-hour dark cycle with free access to water and standard mouse diet (MF diet; Oriental Yeast Co., Ltd, Tokyo Japan). […] Tumor sizes were measured using calipers on Days 4, 7, 14, and Day 22 post-inoculation. […]

On to `CCCCCCCCCCCCCCCC(=O)NCCOCCOCC(=O)NCCOCCOCC(=O)NCCOCCOCC(=O)N[C@@H](CN)C(=O)N[C@@H](CN)C(=O)NCC(=O)N[C@@H](CC(C)C)C(=O)N[C@@H](CO)C(=O)N[C@@H](CCCCN)C(=O)NCC(=O)N[C@H]1CSSC[C@@H](C(=O)O)NC(=O)CNC(=O)[C@H](CC(C)C)NC(=O)CNC(=O)[C@H](CO)NC(=O)[C@H](CCC(N)=O)NC(=O)[C@H](CO)NC(=O)CNC(=O)[C@H]([C@@H](C)CC)NC(=O)[C@H](CCCNC(=N)N)NC(=O)[C@H](CC(=O)O)NC(=O)[C@H](CC(C)C)NC(=O)[C@H](CCCCN)NC(=O)[C@H](CC(C)C)NC(=O)CNC(=O)[C@H](Cc2ccccc2)NC1=O` [SEQ ID NO: 31] ({Palmitoyl-AEEA-AEEA-AEEA}-[Dap][Dap]GLSKGCFGLKLDRIGSQSGLGC-OH; disulfide 8-24; C-terminus assumed), for which, at human NPRC, the “Binding to NPRC (FP signal of CNP-F* probe)” value is recorded as “low FP signal demonstrates binding”. In the test on MC38 colon cancer cells, the “Tumor volume and cancer burden compared to the Control group” value is “significant decrease in tumor volume and cancer burden”.
